Assay results reported in the NIST ThermoML archive (doi:10.1016/j.fluid.2014.11.020).
Numbers after ± are expanded uncertainties.

Assay: activity coefficient (dimensionless); of the first substance listed, at infinite dilution; xn = mol fraction of the nth substance listed
Settings: Liquid, Chromatography, x1 = 0

| SMILES | activity coefficient (323.15 K) | activity coefficient (333.15 K) | activity coefficient (343.15 K) |
| --- | --- | --- | --- |
| CCCO [propan-1-ol] + Cn1cc[n+](COCCCOC[n+]2ccn(C)c2)c1.N#C[N-]C#N.N#C[N-]C#N | 1.22 ± 0.08 | 1.17 ± 0.07 | 1.1 ± 0.07 |
| CCCO [propan-1-ol] + Cn1cc[n+](COCCCOC[n+]2ccn(C)c2)c1.O=S(=O)([N-]S(=O)(=O)C(F)(F)F)C(F)(F)F.O=S(=O)([N-]S(=O)(=O)C(F)(F)F)C(F)(F)F | 1.43 ± 0.09 | 1.32 ± 0.09 | 1.19 ± 0.08 |
| CCCO [propan-1-ol] + N#C[N-]C#N.N#C[N-]C#N.c1ccc(Cn2cc[n+](COCCCOC[n+]3ccn(Cc4ccccc4)c3)c2)cc1 | 1.24 ± 0.08 | 1.2 ± 0.08 | 1.14 ± 0.07 |
| CC(C)O [propan-2-ol] + CCCCCCCCn1cc[n+](COCCC)c1C.O=S(=O)([N-]S(=O)(=O)C(F)(F)F)C(F)(F)F | 1.16 ± 0.07 | 1.05 ± 0.07 | 0.99 ± 0.06 |
| CC(C)O [propan-2-ol] + CCCCCCCCn1cc[n+](COCCCOC[n+]2ccn(CCCCCCCC)c2C)c1C.N#C[N-]C#N.N#C[N-]C#N | 0.4 ± 0.03 | 0.38 ± 0.03 | 0.38 ± 0.03 |
| CC(C)O [propan-2-ol] + CCCCCCCCn1cc[n+](COCCCOC[n+]2ccn(CCCCCCCC)c2C)c1C.O=S(=O)([N-]S(=O)(=O)C(F)(F)F)C(F)(F)F.O=S(=O)([N-]S(=O)(=O)C(F)(F)F)C(F)(F)F | 0.68 ± 0.05 | 0.61 ± 0.04 | 0.56 ± 0.04 |
| CC(C)O [propan-2-ol] + CCCOC[n+]1ccc(N(C)C)cc1.O=S(=O)([N-]S(=O)(=O)C(F)(F)F)C(F)(F)F | 1.7 ± 0.11 | 1.62 ± 0.11 | 1.45 ± 0.1 |
| CC(C)O [propan-2-ol] + CCCOC[n+]1ccn(C)c1.F[B-](F)(F)F | 2.91 ± 0.2 | 2.7 ± 0.18 | 2.6 ± 0.18 |
| CC(C)O [propan-2-ol] + CCCOC[n+]1ccn(C)c1.N#C[N-]C#N | 1.1 ± 0.07 | 1.07 ± 0.07 | 1.04 ± 0.07 |
| CC(C)O [propan-2-ol] + CCCOC[n+]1ccn(C)c1.O=S(=O)([N-]S(=O)(=O)C(F)(F)F)C(F)(F)F | 1.9 ± 0.13 | 1.51 ± 0.1 | 1.39 ± 0.09 |
| CC(C)O [propan-2-ol] + CCCOC[n+]1ccn(Cc2ccccc2)c1.F[B-](F)(F)F | 2.19 ± 0.15 | 1.96 ± 0.13 | 1.81 ± 0.12 |
| CC(C)O [propan-2-ol] + CCCOC[n+]1ccn(Cc2ccccc2)c1.N#C[N-]C#N | 0.85 ± 0.05 | 0.84 ± 0.05 | 0.82 ± 0.05 |
| CC(C)O [propan-2-ol] + CN(C)c1cc[n+](COCCCOC[n+]2ccc(N(C)C)cc2)cc1.O=S(=O)([N-]S(=O)(=O)C(F)(F)F)C(F)(F)F.O=S(=O)([N-]S(=O)(=O)C(F)(F)F)C(F)(F)F | 1.42 ± 0.09 | 1.3 ± 0.08 | 1.18 ± 0.08 |
| CC(C)O [propan-2-ol] + Cn1cc[n+](COCCCOC[n+]2ccn(C)c2)c1.N#C[N-]C#N.N#C[N-]C#N | 1.39 ± 0.09 | 1.32 ± 0.09 | 1.26 ± 0.08 |
| CC(C)O [propan-2-ol] + Cn1cc[n+](COCCCOC[n+]2ccn(C)c2)c1.O=S(=O)([N-]S(=O)(=O)C(F)(F)F)C(F)(F)F.O=S(=O)([N-]S(=O)(=O)C(F)(F)F)C(F)(F)F | 1.31 ± 0.09 | 1.22 ± 0.08 | 1.05 ± 0.07 |
| CC(C)O [propan-2-ol] + N#C[N-]C#N.N#C[N-]C#N.c1ccc(Cn2cc[n+](COCCCOC[n+]3ccn(Cc4ccccc4)c3)c2)cc1 | 1.57 ± 0.1 | 1.45 ± 0.1 | 1.39 ± 0.09 |
| c1ccncc1 [pyridine] + CCCCCCCCn1cc[n+](COCCC)c1C.N#C[N-]C#N | 0.66 ± 0.05 | 0.59 ± 0.04 | 0.54 ± 0.04 |
| c1ccncc1 [pyridine] + CCCCCCCCn1cc[n+](COCCC)c1C.O=S(=O)([N-]S(=O)(=O)C(F)(F)F)C(F)(F)F | 0.35 ± 0.03 | 0.34 ± 0.03 | 0.3 ± 0.03 |
| c1ccncc1 [pyridine] + CCCCCCCCn1cc[n+](COCCCOC[n+]2ccn(CCCCCCCC)c2C)c1C.N#C[N-]C#N.N#C[N-]C#N | 0.4 ± 0.03 | 0.38 ± 0.03 | 0.38 ± 0.03 |
| c1ccncc1 [pyridine] + CCCCCCCCn1cc[n+](COCCCOC[n+]2ccn(CCCCCCCC)c2C)c1C.O=S(=O)([N-]S(=O)(=O)C(F)(F)F)C(F)(F)F.O=S(=O)([N-]S(=O)(=O)C(F)(F)F)C(F)(F)F | 0.13 ± 0.03 | 0.14 ± 0.03 | 0.15 ± 0.03 |
| c1ccncc1 [pyridine] + CCCOC[n+]1ccc(N(C)C)cc1.O=S(=O)([N-]S(=O)(=O)C(F)(F)F)C(F)(F)F | 0.43 ± 0.04 | 0.45 ± 0.04 | 0.46 ± 0.04 |
| c1ccncc1 [pyridine] + CCCOC[n+]1ccn(C)c1.N#C[N-]C#N | 0.91 ± 0.06 | 0.93 ± 0.06 | 0.97 ± 0.06 |

| SMILES | activity coefficient (323.15 K) | activity coefficient (333.15 K) | activity coefficient (343.15 K) |
| --- | --- | --- | --- |
| c1ccncc1 [pyridine] + CCCOC[n+]1ccn(Cc2ccccc2)c1.F[B-](F)(F)F | 0.6 ± 0.04 | 0.61 ± 0.04 | 0.65 ± 0.04 |
| c1ccncc1 [pyridine] + CCCOC[n+]1ccn(Cc2ccccc2)c1.N#C[N-]C#N | 0.67 ± 0.05 | 0.69 ± 0.05 | 0.71 ± 0.05 |
| c1ccncc1 [pyridine] + CCCOC[n+]1ccn(Cc2ccccc2)c1.O=S(=O)([N-]S(=O)(=O)C(F)(F)F)C(F)(F)F |  | 0.28 ± 0.03 | 0.29 ± 0.03 |
| c1ccncc1 [pyridine] + CN(C)c1cc[n+](COCCCOC[n+]2ccc(N(C)C)cc2)cc1.O=S(=O)([N-]S(=O)(=O)C(F)(F)F)C(F)(F)F.O=S(=O)([N-]S(=O)(=O)C(F)(F)F)C(F)(F)F | 0.29 ± 0.03 | 0.31 ± 0.03 | 0.32 ± 0.03 |
| c1ccncc1 [pyridine] + Cn1cc[n+](COCCCOC[n+]2ccn(C)c2)c1.N#C[N-]C#N.N#C[N-]C#N | 1 ± 0.06 | 1.01 ± 0.06 | 1.04 ± 0.07 |
| c1ccncc1 [pyridine] + Cn1cc[n+](COCCCOC[n+]2ccn(C)c2)c1.O=S(=O)([N-]S(=O)(=O)C(F)(F)F)C(F)(F)F.O=S(=O)([N-]S(=O)(=O)C(F)(F)F)C(F)(F)F | 0.4 ± 0.03 | 0.41 ± 0.03 | 0.41 ± 0.03 |
| c1ccncc1 [pyridine] + N#C[N-]C#N.N#C[N-]C#N.c1ccc(Cn2cc[n+](COCCCOC[n+]3ccn(Cc4ccccc4)c3)c2)cc1 | 1.1 ± 0.07 | 1.1 ± 0.07 | 1.12 ± 0.07 |
| ClC(Cl)(Cl)Cl [tetrachloromethane] + CCCCCCCCn1cc[n+](COCCC)c1C.N#C[N-]C#N | 1.21 ± 0.08 | 1.23 ± 0.08 | 1.24 ± 0.08 |
| ClC(Cl)(Cl)Cl [tetrachloromethane] + CCCCCCCCn1cc[n+](COCCC)c1C.O=S(=O)([N-]S(=O)(=O)C(F)(F)F)C(F)(F)F | 1.21 ± 0.08 | 1.19 ± 0.08 | 1.24 ± 0.08 |
| ClC(Cl)(Cl)Cl [tetrachloromethane] + CCCCCCCCn1cc[n+](COCCCOC[n+]2ccn(CCCCCCCC)c2C)c1C.N#C[N-]C#N.N#C[N-]C#N | 1.11 ± 0.07 | 1.12 ± 0.07 | 1.12 ± 0.07 |
| ClC(Cl)(Cl)Cl [tetrachloromethane] + CCCCCCCCn1cc[n+](COCCCOC[n+]2ccn(CCCCCCCC)c2C)c1C.O=S(=O)([N-]S(=O)(=O)C(F)(F)F)C(F)(F)F.O=S(=O)([N-]S(=O)(=O)C(F)(F)F)C(F)(F)F | 0.99 ± 0.06 | 0.92 ± 0.06 | 1.02 ± 0.06 |
| ClC(Cl)(Cl)Cl [tetrachloromethane] + CCCOC[n+]1ccc(N(C)C)cc1.O=S(=O)([N-]S(=O)(=O)C(F)(F)F)C(F)(F)F | 2.01 ± 0.14 | 2.08 ± 0.14 | 1.95 ± 0.13 |
| ClC(Cl)(Cl)Cl [tetrachloromethane] + CCCOC[n+]1ccn(C)c1.F[B-](F)(F)F | 8.91 ± 0.61 | 8.58 ± 0.59 | 8.19 ± 0.56 |
| ClC(Cl)(Cl)Cl [tetrachloromethane] + CCCOC[n+]1ccn(C)c1.N#C[N-]C#N | 4.04 ± 0.28 | 4.08 ± 0.28 | 4.39 ± 0.3 |
| ClC(Cl)(Cl)Cl [tetrachloromethane] + CCCOC[n+]1ccn(C)c1.O=S(=O)([N-]S(=O)(=O)C(F)(F)F)C(F)(F)F | 3 ± 0.2 | 3.05 ± 0.21 | 2.85 ± 0.19 |
| ClC(Cl)(Cl)Cl [tetrachloromethane] + CCCOC[n+]1ccn(Cc2ccccc2)c1.F[B-](F)(F)F | 5.01 ± 0.34 | 4.71 ± 0.32 | 4.58 ± 0.31 |
| ClC(Cl)(Cl)Cl [tetrachloromethane] + CCCOC[n+]1ccn(Cc2ccccc2)c1.N#C[N-]C#N | 2.5 ± 0.17 | 2.58 ± 0.18 | 2.67 ± 0.18 |
| ClC(Cl)(Cl)Cl [tetrachloromethane] + CCCOC[n+]1ccn(Cc2ccccc2)c1.O=S(=O)([N-]S(=O)(=O)C(F)(F)F)C(F)(F)F | 1.87 ± 0.13 | 1.83 ± 0.12 | 1.81 ± 0.12 |
| ClC(Cl)(Cl)Cl [tetrachloromethane] + Cn1cc[n+](COCCCOC[n+]2ccn(C)c2)c1.N#C[N-]C#N.N#C[N-]C#N | 6.68 ± 0.46 | 6.94 ± 0.47 | 7 ± 0.48 |
| ClC(Cl)(Cl)Cl [tetrachloromethane] + Cn1cc[n+](COCCCOC[n+]2ccn(C)c2)c1.O=S(=O)([N-]S(=O)(=O)C(F)(F)F)C(F)(F)F.O=S(=O)([N-]S(=O)(=O)C(F)(F)F)C(F)(F)F | 3.21 ± 0.22 | 3.03 ± 0.21 | 2.29 ± 0.16 |
| CCCCCCCCCCCCCC [tetradecane] + CCCOC[n+]1ccn(C)c1.F[B-](F)(F)F | 2700 ± 190 | 2500 ± 170 | 2300 ± 160 |
| CCCCCCCCCCCCCC [tetradecane] + CCCOC[n+]1ccn(C)c1.N#C[N-]C#N | 1510 ± 100 | 1390 ± 96 | 1260 ± 87 |
